Experiments:
Assay type in all cases: cell-based
DX3puro (−) cells [1] = test: Caspase-3/7 activity assay (ApoTox-Glo), DX3puro; settings: 0.625 nM (MMAE 1 nM, staurosporine 100 nM), 24, 48, 72 h
Procedure: (§1) Caspase-3/7 activity was analyzed using an ApoTox-Glo Triplex Assay kit. Cells were seeded in a 96 well plate at the same density and using the same respective media as described for the WST-1 assay and incubated overnight (37 °C, 5% CO2). DX3puroβ6 and DX3puro cells were treated with 1 nM of MMAE (free, non-targeted drug) or 0.625 nM of the other compounds: NH2-2, [^natCu]2, NH2-PDC-1, or [^natCu]PDC-1. BxPC-3 and MIA PaCa-2 cells were treated with 10 nM of MMAE or 250 nM of the other compounds: NH2-2, [^natCu]2, NH2-PDC-1, or [^natCu]PDC-1. All cells were treated with 100 nM of staurosporine as a positive control.[24] Untreated cells (media) were used as a measure of endogenous caspase-3/7 activity (normalized to 1). Cells were treated (n = 4/cell line/compound/time) for 24, 48, or 72 h (37 °C, 5% CO2) prior to washing. After treatment, the media was removed, cells were washed, and Caspase-Glo 3/7 reagent was added, and incubated for 1 h at room temperature. Caspase-3/7 activity was analyzed by measuring luminescence with a Fluoroskan FL microplate reader according to the manufacturer’s protocol.

MIA PaCa-2 (−) cells [2] = test: Caspase-3/7 activity assay (ApoTox-Glo), MIA PaCa-2; settings: 250 nM (MMAE 10 nM, staurosporine 100 nM), 24, 48, 72 h
Procedure: as §1

DX3puroβ6 (+) cells [3] = test: Caspase-3/7 activity assay (ApoTox-Glo), DX3puroβ6; settings: DX3puroβ6 (+); 0.625 nM (MMAE 1 nM, staurosporine 100 nM); 24, 48, 72 h
Procedure: as §1

BxPC-3 (+) cells [4] = test: Caspase-3/7 activity assay (ApoTox-Glo), BxPC-3; settings: 250 nM (MMAE 10 nM, staurosporine 100 nM), 24, 48, 72 h
Procedure: as §1

DX3puro (−) cells [5] = test: WST-1 cell viability assay, DX3puro; settings: up to 5 nM
Procedure: (§2) Peptides NH2-2 and [^natCu]2 were not toxic to any cells (Figure 3, gray and black, respectively).
(§3) Cell viability was measured after treatment with either NH2-2, [^natCu]2, MMAE (free, non-targeted drug), NH2-PDC-1, or [^natCu]PDC-1 in DX3puroβ6 (+) and DX3puro (−) cells at variable concentrations up to 5 nM, and in BxPC-3 (+) and MIA PaCa-2 (−) cells at variable concentrations up to 250 nM, or with MMAE at concentrations up to 10 nM. Cells were seeded in a 96 well plate at a density of 6000 cells/well for DX3puroβ6 and DX3puro, and at a density of 10,000 cells/well for BxPC-3 and MIA PaCa-2. DMEM media was used for all cells except for BxPC-3 (RPMI 1640 media). Cells (n = 6–8 wells/cell type/compound) were treated with different concentrations of NH2-2, [^natCu]2, MMAE, NH2-PDC-1, or [^natCu]PDC-1 dissolved in the respective media, as well as their respective media (no treatment) for 48 h (37 °C, 5% CO2), after which the media was removed; cells were washed twice with media (200 μL) and re-incubated in media (37 °C, 5% CO2) for 24 h. The media was then removed and the WST-1 reagent was added to each well, and the cells were incubated for 2 h at 37 °C. The 96 well plates were read at 450 nm by a Multiscan Ascent microplate reader. The percent cell viability was normalized to untreated cells (set as 100% viability) for each cell line.

BxPC-3 (+) cells [6] = test: WST-1 cell viability assay, BxPC-3; settings: up to 250 nM
Procedure: as §2, §3

MIA PaCa-2 (−) cells [7] = test: WST-1 cell viability assay, MIA PaCa-2; settings: MIA PaCa-2 (−); up to 250 nM
Procedure: as §2, §3

DX3puroβ6 (+) cells [8] = test: WST-1 cell viability assay, DX3puroβ6; settings: DX3puroβ6 (+); up to 5 nM
Procedure: as §2, §3

Row | Compound | Caspase-3/7 activity (in words) (DX3puro (−) cells [1]) | Caspase-3/7 activity (in words) (MIA PaCa-2 (−) cells [2]) | Caspase-3/7 activity (in words) (DX3puroβ6 (+) cells [3]) | Caspase-3/7 activity (in words) (BxPC-3 (+) cells [4]) | Cytotoxicity (in words), WST-1 (DX3puro (−) cells [5]) | Cytotoxicity (in words), WST-1 (BxPC-3 (+) cells [6]) | Cytotoxicity (in words), WST-1 (MIA PaCa-2 (−) cells [7]) | Cytotoxicity (in words), WST-1 (DX3puroβ6 (+) cells [8])
1 | CN[C@@H]1C[C@H]2O[C@@](C)([C@@H]1OC)n1c3ccccc3c3c4c(c5c6ccccc6n2c5c31)C(=O)NC4 [staurosporine, reference compound] | increased caspase-3/7 activity | increased caspase-3/7 activity | increased caspase-3/7 activity | increased caspase-3/7 activity | – | – | – | –
2 | NH2-C-αvβ6-BP [NH2-2] | no effect on caspase-3/7 activity | no effect on caspase-3/7 activity | no effect on caspase-3/7 activity | no effect on caspase-3/7 activity | not toxic | not toxic | not toxic | not toxic

Source: PMC10388305, “Synthesis and Evaluation of a Monomethyl Auristatin E—Integrin αvβ6 Binding Peptide–Drug Conjugate for Tumor Targeted Drug Delivery” (Journal of Medicinal Chemistry, 2023)
